In paper PMC3971528, “Leishmania infantum EndoG Is an Endo/Exo-Nuclease Essential for Parasite Survival” (PLoS ONE, 2014):

Biological target: T1, LiEndoG (rLiEndoG) (Leishmania infantum, UniProt B0ZTD3)
T1 construct: gene endog; recombinant from pRSET-LiendoG in E. coli BL21(DE3) pLys
T1 sequence (B0ZTD3 1-510): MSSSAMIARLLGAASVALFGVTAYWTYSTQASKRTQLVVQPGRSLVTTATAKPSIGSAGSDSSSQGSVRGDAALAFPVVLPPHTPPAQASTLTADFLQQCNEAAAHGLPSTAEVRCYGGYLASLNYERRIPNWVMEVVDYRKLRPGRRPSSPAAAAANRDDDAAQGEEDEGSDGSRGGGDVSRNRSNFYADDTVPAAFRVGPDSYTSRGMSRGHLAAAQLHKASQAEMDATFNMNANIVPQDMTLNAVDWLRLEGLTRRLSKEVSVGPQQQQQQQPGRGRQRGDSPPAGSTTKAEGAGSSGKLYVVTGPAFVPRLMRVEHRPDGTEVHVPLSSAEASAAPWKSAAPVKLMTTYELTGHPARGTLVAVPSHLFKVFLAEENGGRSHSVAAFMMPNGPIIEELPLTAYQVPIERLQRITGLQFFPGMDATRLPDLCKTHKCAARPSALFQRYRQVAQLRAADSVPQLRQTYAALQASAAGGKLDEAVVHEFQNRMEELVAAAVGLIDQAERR
Assay: fluorescence nuclease assay, FAM/TAMRA double-stranded oligonucleotide probe
Assay type: biochemical
Settings: inhibitor; 30 pmol probe, 2.5 ng/mL LiEndoG, 40 min; increasing Lei49

## Cc1cn([C@H]2C[C@H](OC(=O)CCC(=O)OCCOC(=O)[C@@H](N)C(C)C)[C@@H](COC(c3ccccc3)(c3ccccc3)c3ccccc3)O2)c(=O)[nH]c1=O [Lei49, 2-[(S)-2-Amino-3-methylbutanoyl-oxy]ethyl [(2R,3S,5R)-5-(thymin-1-yl)-2-(trityloximethyl)tetrahydrofuran-3-yl] succinate]
  fluorescence nuclease assay, FAM/TAMRA double-stranded oligonucleotide probe: Inhibition of the nuclease activity of LiEndoG by Lei49.
